According to patent US12371400B2, “Cathepsin inhibitors” (ACADEMISCH ZIEKENHUIS LEIDEN (H.O.D.N. LUMC), priority 2017, dated 2025):

Assays:
hCatK [1] = biological target: T1, hCatK (Homo sapiens, UniProt P43235); experiment: Jump dilution assay for reversibility of hCatK inhibition; format: biochemical; details: 300× dilution into fluorogenic substrate solution
T1 sequence (P43235 115-329): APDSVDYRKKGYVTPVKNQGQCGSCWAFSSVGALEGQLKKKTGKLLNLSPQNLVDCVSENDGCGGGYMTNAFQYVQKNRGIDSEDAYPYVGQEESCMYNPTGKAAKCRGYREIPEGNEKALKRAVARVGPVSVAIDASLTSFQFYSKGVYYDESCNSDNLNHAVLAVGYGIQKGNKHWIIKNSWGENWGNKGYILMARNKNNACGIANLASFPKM
Experimental: FIG. 3 provides a schematic overview of a jump dilution assay. A) Dose response curve for a 300-fold dilution of inhibitor concentration from full inhibition to full activity. B) Protocol and concentrations for incubation and dilution. C) Progress curves for hCatK proteolytic activity with inhibitor compounds ODN, 4, 5, 6 after dilution.
Reversibility of protease inhibition by an inhibitor may be assessed in a jump dilution assay. An exemplary jump dilution assay is provided in R. A. Copeland, A. Basavapathruni, M. Moyer, M. P. Scott, Anal. Biochem. 2011, 416, 206. In a jump dilution assay the protease (e.g. CatK) is incubated with inhibitor at high concentration to allow full active site occupation, and subsequently diluted, e.g. 300×, into fluorogenic substrate solution resulting in an inhibitor concentration corresponding with full protease activity. The hydrolysis of fluorogenic substrate is monitored over an extended time period, e.g. at least 60 minutes. […] The assay results may be compared with the results using a known irreversible inhibitor of the protease as a control. E-64 represents an established pan-Cathepsin irreversible inhibitor, suitable for use as a positive control with most cysteine protease Cathepsins.
Reversibility of hCatK inhibition was assessed in a jump dilution assay. Established pan-Cathepsin inhibitor E-64 was taken along as a control for irreversible inhibition. Purified hCatK was incubated with inhibitors at high concentration to allow full active site occupation, and subsequently diluted 300× into fluorogenic substrate solution resulting in an inhibitor concentration corresponding with full activity (FIG. 3).

CatK [2] = biological target: T2, CatK (Homo sapiens, UniProt P43235); experiment: CatK activity (probe BMV109) and CatK expression (Western blot) in OC lysates; format: cell-based; design: endogenous in cells; host or cells: human osteoclasts differentiated from CD14+ monocytes on cortical bone slices; details: for mature CatK in OCs (Western blotting): OCs treated with inhibitor
T2 sequence (P43235 115-329): T1 sequence (P43235 115-329)
Experimental: The inhibitory properties on CatK of inhibitors of this invention were tested in a biologically relevant setting: inhibition of bone resorption by osteoclasts (OCs). OCs are the cells that degrade the bone matrix by secretion of acid and CatK into the resorption lacunae, resulting in the cleavage of collagen type I. Inhibition of osteoclastic CatK was studied by culturing OCs on cortical bone slices in presence of inhibitors of this invention (FIG. 5). […] OCs predominantly form deep trenches (paths) while OCs lacking CatK form small pits (circular dots). B) CD14+ monocytes on bone slices were treated with MCSF (day 0) and RANKL (day 3) to stimulate differentiation to mature OCs. Medium containing either an inhibitor or DMSO was refreshed on day 7, 10, 13 and 16. At day 21, OCs were washed away and lysed, and bone slices were stained to visualize bone resorption. C) Bone resorption visualized by staining of resorption pits with Coomassie Brilliant Blue. More staining means more resorption pits, thus more bone resorption activity. Normal D) Schematic overview of pro-Cathepsin K activation. E) CatK activity and expression in OC lysates. […] Darker bands indicate more activity/expression of CatK.
OC lysates were treated with activity-based irreversible Cathepsin probe BMV109 to assess whether the observed inhibition of bone resorption could be correlated with CatK activity (FIG. 5E).

hCatK [3] = biological target: T1, hCatK; experiment: Kinetic evaluation of covalent inhibitors on purified hCatK; format: biochemical; details: 100 pM hCatK, 4 μM Z-FR-AMC, 26° C., reaction started by addition of CatK; for Ki: read-out: Kl; for kinact: read-out: kinact (converted)
Experimental: The reaction kinetics of irreversible covalent inhibitor compounds may be assed in the following manner. Inhibitors (200 nL, 100× final concentration in DMSO) were diluted in reaction buffer (10 μL). Fluorogenic substrate (5 μL, 4× final concentration) was added and the reaction was started by addition of Cathepsin (5 μL, 4× final concentration). Fluorescence intensity was measured every 2 minutes for 60 minutes and fitted to equation I to obtain the Kobs. The obtained values were plotted against the inhibitor concentration and fitted to equation II to obtain kinetic parameters Kinact (rate of covalent bond formation) and Ki.
Kinetic evaluation of irreversible covalent inhibitors was conducted by following the progress curve of inhibition when the hydrolysis of substrate is started by addition of the enzyme (instead of incubating the protease with the inhibitor prior to addition of the substrate). From this curve the maximum rate of covalent bond formation (Kinact) could be determined (Table 4).

hCatL = hCatL (Homo sapiens, UniProt P07711); experiment: In vitro inhibition of purified human Cathepsin L (Z-FR-AMC); format: biochemical; details: 30 min incubation with inhibitor, mean ± SD, triplicate
Sequence of hCatL (P07711 114-333): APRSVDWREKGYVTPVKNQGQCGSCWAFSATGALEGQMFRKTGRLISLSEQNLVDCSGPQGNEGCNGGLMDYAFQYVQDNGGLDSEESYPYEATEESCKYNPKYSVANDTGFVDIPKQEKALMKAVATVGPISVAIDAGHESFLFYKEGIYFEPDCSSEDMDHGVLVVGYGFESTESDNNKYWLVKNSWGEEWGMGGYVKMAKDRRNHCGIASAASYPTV
Experimental: (§1) Cathepsin (e.g. Cathepsin K/L/V/S/B), in particular purified human Cathepsin, was diluted in freshly prepared reaction buffer consisting of 50 mM MES pH 5.5, 25 mM EDTA and 2.5 mM DTT. 0.05% Tween20 (v/v) may be added to the reaction buffer of the Cathepsin K.
(§2) Activity assays may be conducted in a suitable manner. […] Plates were shaken at 600 rpm for 1 minute and centrifuged at 1000 rpm for 1 minute prior to incubation. Cathepsin activity was quantified using synthetic fluorogenic peptide substrate Z-FR-AMC (Cath K, L, V), Z-RR-AMC (Cath B) or Z-FVR-AMC (Cath S). Fluorescence intensity (λex=350 nm, λem=440 nm) was measured every 2 minutes in arbitrary units (A.U.) on a CLARIOstar (BMG Labtech) microplate reader and values were converted to product formation [AMC]. […] Measurements were performed in triplicate.
(§3) Inhibitors (200 nL, 100× final concentration in DMSO) were diluted in reaction buffer (10 μL). Purified human Cathepsin (5 μL, 4× final concentration) was added and the reaction mixture was incubated for 30 min at room temperature. Fluorogenic substrate (5 μL, 4× final concentration) was added and fluorescence intensity was measured every 2 minutes for 30-90 minutes.
(§4) The potency of the compounds as CatK inhibitors was assessed in an in vitro inhibition assay on purified human CatK (Table 2). Cathepsin was incubated with inhibitor, and the hydrolysis of substrate was initiated by addition of substrate.

hCatB = hCatB (Homo sapiens, UniProt P07858); experiment: In vitro inhibition of purified human Cathepsin B (Z-RR-AMC); format: biochemical; details: 30 min incubation with inhibitor, mean ± SD, triplicate
Experimental: as §1, §2, §3, §4

CatK [4] = biological target: T2, CatK; details: cited from earlier work
[5] = in vivo; cited from earlier work
[6] = phase III clinical trials; cited from earlier work
[7] = samples treated with high concentrations

| SMILES | reversibility of hCatK inhibition (hCatK [1]) | mature CatK in OCs (Western blotting) (CatK [2]) | CatK activity in OC lysates (probe BMV109) (CatK [2]; [7]) | kinact/Kl (hCatK [3]) [M⁻¹ s⁻¹] | Ki (hCatK [3]) [µM] | kinact (hCatK [3]) [s⁻¹] | IC50 (hCatL) [µM] | IC50 (hCatB) [µM] | CatK activity in OC lysates (probe BMV109) (CatK [2]; all samples treated) | selectivity for CatK versus other Cathepsins (CatK [4]) | half-life [5] [h] | stroke risk [6] |
| --- | --- | --- | --- | --- | --- | --- | --- | --- | --- | --- | --- | --- |
| C#CC(C)NC(=O)[C@H](CC(C)(C)F)N[C@@H](c1ccc(-c2ccc(S(C)(=O)=O)cc2)cc1)C(F)(F)F (mixture of isomers) [Compound 5, (S)—N—((R/S)-but-3-yn-2-yl)-4-fluoro-4-methyl-2-(((S)-2,2,2-trifluoro-1-(4′-(methylsulfonyl)-[1,1′-biphenyl]-4-yl)ethyl)amino)pentanamide] | irreversible | mature CatK is present | full inhibition of CatK activity | 250 | 3.25 | 0.000783 | > 100 | 39.7 ± 4.34 |  |  |  |  |
| C#CCNC(=O)[C@H](CC(C)(C)F)N[C@@H](c1ccc(-c2ccc(S(C)(=O)=O)cc2)cc1)C(F)(F)F [Compound 4, (S)-4-fluoro-4-methyl-N-(prop-2-yn-1-yl)-2-(((S)-2,2,2-trifluoro-1-(4′-(methylsulfonyl)-[1,1′-biphenyl]-4-yl)ethyl)amino)pentanamide] | irreversible | mature CatK is present | full inhibition of CatK activity | 883 | 0.212 | 0.000183 | > 100 | 9.39 ± 0.628 |  |  |  |  |
| CC(C)(F)C[C@H](N[C@@H](c1ccc(-c2ccc(S(C)(=O)=O)cc2)cc1)C(F)(F)F)C(=O)NC1(C#N)CC1 [ODN, (S)—N-(1-cyanocyclopropyl)-4-fluoro-4-methyl-2-(((S)-2,2,2-trifluoro-1-(4′-(methylsulfonyl)-[1,1′-biphenyl]-4-yl)ethyl)amino)pentanamide, reference compound] | (fast) reversible inhibitor |  |  |  |  |  | 5.35 ± 0.596 | 0.0626 ± 0.0025 | strong increase of mature CatK activity | high selectivity | 66 to 93 | increased stroke risk |
